Measured values published in US6737507B2, “Antiangiogenic peptides and compositions thereof” (Children's Medical Center Corporation, priority 1999, dated 2004).

Experiments:
capillary tube formation = conditions: in vitro; cited from earlier work
[1] = system: capillary endothelial cells (EC); experiment: bFGF-stimulated EC proliferation assay; format: cell-based; conditions: FIG. 1
Excerpt: Inhibition of endothelial cell proliferation may be measured by calorimetric determination of cellular acid phosphatase activity or electronic cell counting. These methods provide a quick and sensitive screen for determining the number of endothelial cells in culture after treatment with the connective tissue growth factor protein, derivative, or analog of the invention, and an angiogenesis stimulating factor such as aFGF. The calorimetric determination of cellular acid phosphatase activity is described by Connolly et al., 1986, J. Anal. Biochem. J52:136-140. According to this method, capillary endothelial cells are treated with angiogenesis stimulating factors, such as aFGF, and a range of potential inhibitor concentrations. These samples are incubated to allow for growth, and then harvested, washed, lysed in a buffer containing a phosphatase substrate, and then incubated a second time. A basic solution is added to stop the reaction and color development is determined at […]. According to Connolly et al., a linear relationship is obtained between acid phosphatase activity and endothelial cell number up to 10,000 cells/sample. […] Percent inhibition is determined by comparing the cell number of samples exposed to stimulus with those exposed to both stimulus and inhibitor. […] Following incubation, the cells are harvested and the extent of thymidine incorporation is determined. […]

MMP-1 = molecular target: T1, MMP-1 (Homo sapiens, UniProt P03956); experiment: MMP-1 activity assay; format: biochemical; conditions: FIG. 2
T1 sequence (P03956 100-469): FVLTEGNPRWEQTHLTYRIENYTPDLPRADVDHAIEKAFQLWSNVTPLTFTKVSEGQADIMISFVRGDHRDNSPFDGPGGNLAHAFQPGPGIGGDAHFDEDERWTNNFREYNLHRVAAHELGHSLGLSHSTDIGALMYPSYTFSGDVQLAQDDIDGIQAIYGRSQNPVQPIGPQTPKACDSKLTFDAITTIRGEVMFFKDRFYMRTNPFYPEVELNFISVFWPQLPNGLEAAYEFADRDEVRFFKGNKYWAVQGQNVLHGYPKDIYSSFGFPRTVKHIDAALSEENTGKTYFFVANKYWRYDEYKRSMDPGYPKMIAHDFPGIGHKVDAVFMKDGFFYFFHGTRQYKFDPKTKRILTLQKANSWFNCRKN
Excerpt: FIG. 2: MMP-1 activity assay. The purified protein inhibited bFGF-stimulated EC proliferation in the bFGF stimulated EC proliferation assay (Moses, et al., Science, 248:1408-1410 (1990)) (FIG. 1) and inhibited neovascularization in vivo in the CAM assay.

neovascularization = experiment: CAM assay (chick chorioallantoic membrane), neovascularization in vivo
Excerpt: Assays for the ability to inhibit angiogenesis in vivo include the chick chorioallantoic membrane assay and mouse, rat or rabbit corneal pocket assays. See, Polverini et al., 1991, Methods Enzymol. 198:440-450. In corneal pocket assays, a tumor of choice is implanted into the cornea of the test animal in the form of a corneal pocket. The potential angiogenesis inhibitor is applied to the corneal pocket and the corneal pocket is routinely examined for neovascularization. The purified protein inhibited bFGF-stimulated EC proliferation in the bFGF stimulated EC proliferation assay (Moses, et al., Science, 248:1408-1410 (1990)) (FIG. 1) and inhibited neovascularization in vivo in the CAM assay.

endothelial cell = conditions: cited from earlier work
microvascular cells = conditions: in vitro, amnion invasion assay; cited from earlier work
MMP = experiment: standard radiometric enzyme assay for MMP inhibition; format: biochemical
Description: After 24 hours, positive colonies were harvested, pooled and re-plated into minimal plates. Since multiple copies of the construct are reported to confer resistance to high levels of GF18 we screened for “jackpot” clones by replica plating in increasing doses of GF18, as high as 4 mg/ml. After four days, approximately five colonies containing multiple copies of the gene were screened for expression levels of TIMP-3 in 5 ml cultures. The two clones showing the highest expression, T3-3 His+Mut^s and T3-A His+Mut^s, were then used to inoculate 500 ml cultures, as was one clone containing pPIC9K vector alone as a control for background expression. Both T3-3 and T3-A produced a prominent protein band at app. […] Highly purified TIMP-3 was obtained by subsequent chromatography on a Progel-TSK G30000SWK HPLC column (Supelco) followed by SDS-PAGE and silver staining. […] Both T3-3 and T3-A were inhibitory when tested in the standard radiometric enzyme assay for MMP inhibition (Moses, M. A., et al., Science 248:1408-1410, (1990) and Moses, M. A., et al., J. Cell Biol. 119:475-482, (1992)).

## c1cnc2c(c1)ccc1cccnc12 [1,10-phenanthroline]
Capillary tube formation
  inhibition of capillary tube formation: could inhibit

## CKITRCPMIPCYISSPDECLWMDWVTEKNINGHQAKFFACIKRSDGSCAWYRGA APPKQEFLDIEDP [purified protein]
[1]
  inhibition of bFGF-stimulated EC proliferation: inhibited
MMP-1
  inhibition of MMP-1 activity: did not inhibit
neovascularization
  inhibition of neovascularization in vivo: inhibited

## TIMP-1: Tissue Inhibitor of MetalloProteinase 1
Endothelial cell; FGF-stimulated
  inhibition of FGF-stimulated endothelial cell proliferation: not
Endothelial cell; other studies
  effect on growth of EC proliferation: stimulate
Microvascular cells
  inhibition of migration of microvascular cells: could inhibit

B1: T3-3: full length human TIMP-3 expressed by Pichia pastoris clone T3-3 (protein)
chain: CTCSPSHPQDAFCNSDIVIRAKVVGKKLVKEGPFGTLVYTIKQMKMYRGFTKMPHVQYIHTEASESLCGLKLEVNKYQYLLTGRVYDGKMYTGLCNFVERWDQLTLSQRKGLNYRYHLGCNCKIKSCYYLPCFVTSKNECLWTDMLSNFGYPGYQSKHYACIRQKGGYCSWYRGWAPPDKSIINATDP
MMP
  MMP inhibition: inhibitory

B2: T3-A: full length human TIMP-3 expressed by Pichia pastoris clone T3-A (protein)
chain: CTCSPSHPQDAFCNSDIVIRAKVVGKKLVKEGPFGTLVYTIKQMKMYRGFTKMPHVQYIHTEASESLCGLKLEVNKYQYLLTGRVYDGKMYTGLCNFVERWDQLTLSQRKGLNYRYHLGCNCKIKSCYYLPCFVTSKNECLWTDMLSNFGYPGYQSKHYACIRQKGGYCSWYRGWAPPDKSIINATDP
MMP
  MMP inhibition: inhibitory
